Data set [1] can be described thus: Formation of solutions of nitrapyrin salts at 20% w/w nitrapyrin and grading of solutions. The format is physicochemical. Details: key: 5: Fully dissolved; 4: Mostly dissolved; 3: Mostly not dissolved; 2: Not dissolved; 1: Additional precipitate. From the text:
Example 2. Formation of Solutions of Nitrapyrin Salts and Grading of Solutions

Data set [2] can be described thus: Nitrapyrin volatilization, weight loss on heated balance at 100° C. The data set is classed as physicochemical. To be noted: for weight as a percent of original weight: heated balance 100° C. How it is done: Three materials were placed on a heated balance at 100° C. and had their weights observed every minute for 10 minutes, as a percent of original weight. The materials were: • 1. pure nitrapyrin, • 2. 25% w/w solution of nitrapyrin in sulfolane, and • 3. solution of 25% nitrapyrin salt with equimolar (on acid basis) amount of maleic-itaconic copolymer, also in sulfolane (nitrapyrin/polyanionic polymer salt).
Therefore, the disclosed nitrapyrin salts substantially reduce the volatilization of nitrapyrin.

[3] abbreviates: solvent Rhodiasolv Polarclean (L).
The mark [4] stands for this setting: solvent propylene carbonate (F).
The mark [5] stands for this setting: solvent tripropylene glycol (E).

For `Clc1cccc(C(Cl)(Cl)Cl)n1.Clc1cccc(C(Cl)(Cl)Cl)n1.O=C(O)CC(O)C(=O)O` [malic], the grading of solution in data set [1] (solvent Agnique AMD3L (I)) turned out to be 5; in data set [1] (solvent Agnique AMD810 (H)) it was 5; in data set [1] (solvent PT250 (C)), 1; in data set [1] (solvent PT700 (B)), 4; in data set [1] (solvent Rhodiasolv ADMA10 (J)) it was 5; in data set [1] (solvent Rhodiasolv ADMA810 (K)), 5. In addition, the grading of solution in data set [1] (setting [3]) amounted to 5; in data set [1] (solvent dipropylene glycol (A)) it was 2; in data set [1] (setting [4]), 3; in data set [1] (solvent triacetin (G)), 3; in data set [1] (solvent triethylene glycol (D)) it was 2; in data set [1] (setting [5]) it was 2.
On to `Clc1cccc(C(Cl)(Cl)Cl)n1` [nitrapyrin without solvent, Nitrapyrin], for which the “weight as a percent of original weight” value in data set [2] (experiment time 0 min) amounted to 100.00%; in data set [2] (experiment time 1 min) it was 99.20%; in data set [2] (experiment time 2 min), 98.56%; in data set [2] (experiment time 3 min) it was 97.92%; in data set [2] (experiment time 4 min), 96.00%; in data set [2] (experiment time 5 min), 94.87%. Moreover, the “weight as a percent of original weight” value in data set [2] (experiment time 6 min) came out at 93.75%; in data set [2] (experiment time 7 min), 92.63%; in data set [2] (experiment time 8 min), 90.87%; in data set [2] (experiment time 9 min), 89.90%; in data set [2] (experiment time 10 min), 89.10%. In data set [2] (nitrapyrin without solvent vs. solvent alone, 100° C., 3 to 10 min), the “nitrapyrin sulfolane volatility ratio, Delta 3-10” value was found to be 401%. Moreover, the “nitrapyrin sulfolane volatility ratio, Delta 4-10” value in data set [2] (nitrapyrin without solvent vs. solvent alone, 100° C., 4 to 10 min) was found to be 392%. For the same compound, the “nitrapyrin sulfolane volatility ratio, Delta 5-10” value in data set [2] (nitrapyrin without solvent vs. solvent alone, 100° C., 5 to 10 min) turned out to be 393%.
On to `O=C(O)CCC(=O)O` [succinic], for which the grading of solution was 5 in data set [1] (solvent Agnique AMD3L (I)); 5 in data set [1] (solvent Agnique AMD810 (H)); 1 in data set [1] (solvent PT250 (C)); 4 in data set [1] (solvent PT700 (B)); 5 in data set [1] (solvent Rhodiasolv ADMA10 (J)); 5 in data set [1] (solvent Rhodiasolv ADMA810 (K)). Further, the grading of solution in data set [1] (setting [3]) was determined as 5; in data set [1] (solvent dipropylene glycol (A)), 3; in data set [1] (setting [4]) it was 3; in data set [1] (solvent triacetin (G)), 2; in data set [1] (solvent triethylene glycol (D)) it was 2; in data set [1] (setting [5]), 3.
In the case of `CC(O)(P(=O)(O)O)P(=O)(O)O.Clc1cccc(C(Cl)(Cl)Cl)n1.Clc1cccc(C(Cl)(Cl)Cl)n1.Clc1cccc(C(Cl)(Cl)Cl)n1.Clc1cccc(C(Cl)(Cl)Cl)n1` [etidronic], the grading of solution in data set [1] (solvent Agnique AMD3L (I)) is reported as 5; in data set [1] (solvent Agnique AMD810 (H)) it was 4; in data set [1] (solvent PT250 (C)), 1; in data set [1] (solvent PT700 (B)), 4; in data set [1] (solvent Rhodiasolv ADMA10 (J)), 5; in data set [1] (solvent Rhodiasolv ADMA810 (K)), 4. In addition, the grading of solution in data set [1] (setting [3]) amounted to 5; in data set [1] (solvent dipropylene glycol (A)) it was 1; in data set [1] (setting [4]) it was 2; in data set [1] (solvent triacetin (G)), 2; in data set [1] (solvent triethylene glycol (D)) it was 1; in data set [1] (setting [5]) it was 1.
Turning to `Clc1cccc(C(Cl)(Cl)Cl)n1.Clc1cccc(C(Cl)(Cl)Cl)n1.O=C(O)c1cccc(C(=O)O)c1` [isophthalic], the grading of solution in data set [1] (solvent Agnique AMD3L (I)) stood at 3; in data set [1] (solvent Agnique AMD810 (H)), 3; in data set [1] (solvent PT250 (C)) it was 1; in data set [1] (solvent PT700 (B)), 2; in data set [1] (solvent Rhodiasolv ADMA10 (J)), 3; in data set [1] (solvent Rhodiasolv ADMA810 (K)) it was 3. The grading of solution in data set [1] (setting [3]) amounted to 3; in data set [1] (solvent dipropylene glycol (A)) it was 2; in data set [1] (setting [4]), 3; in data set [1] (solvent triacetin (G)), 3; in data set [1] (solvent triethylene glycol (D)), 1; in data set [1] (setting [5]), 4.
For the compound `O=C(O)C(O)C(O)C(=O)O` (centres unmarked) [tartaric], the grading of solution was found to be 5 in data set [1] (solvent Agnique AMD3L (I)); 5 in data set [1] (solvent Agnique AMD810 (H)); 1 in data set [1] (solvent PT250 (C)); 2 in data set [1] (solvent PT700 (B)); 5 in data set [1] (solvent Rhodiasolv ADMA10 (J)); 5 in data set [1] (solvent Rhodiasolv ADMA810 (K)). Further, the grading of solution in data set [1] (setting [3]) worked out at 5; in data set [1] (solvent dipropylene glycol (A)), 2; in data set [1] (setting [4]) it was 2; in data set [1] (solvent triacetin (G)) it was 2; in data set [1] (solvent triethylene glycol (D)), 1; in data set [1] (setting [5]), 2.

The values are drawn from patent US12195410B2, “Nitrapyrin compositions for enhancing nitrogen nutrient use efficiency and improving plant growth” (Verdesian Life Sciences U.S., LLC, priority 2018, dated 2025).
